Experimental data taken from PubChem BioAssay (NCI).
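Grown in 96-well plates, cells were treated for 48 hours with each compound at five concentrations. Insufficient inhibition: endpoint recorded as highest concentration tested. The concentration for 50% growth inhibition is given as GI50. TGI: concentration producing complete growth inhibition.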

Tests used:
Assay in all cases: growth of human tumour cells (NCI), 48 h
MOLT-4 leukemia = system: MOLT-4 leukemia
UACC-62 melanoma = system: UACC-62 melanoma
PC-3 prostate = system: PC-3 prostate
SF-295 CNS = system: SF-295 CNS
RXF 393 renal = system: RXF 393 renal
SK-MEL-5 melanoma = system: SK-MEL-5 melanoma
SN12C renal = system: SN12C renal
EKVX NSCLC = system: EKVX NSCLC
NCI-H226 lung = system: NCI-H226 lung
MDA-MB-231 breast = system: MDA-MB-231 breast
K-562 leukemia = system: K-562 leukemia
BT-549 breast = system: BT-549 breast
NCI-H460 lung = system: NCI-H460 lung
SK-OV-3 ovarian = system: SK-OV-3 ovarian
LOX IMVI melanoma = system: LOX IMVI melanoma
HCT-15 colon = system: HCT-15 colon
TK-10 renal = system: TK-10 renal
DU-145 prostate = system: DU-145 prostate
IGROV1 ovarian = system: IGROV1 ovarian
HCC-2998 colon = system: HCC-2998 colon
HS 578T breast = system: HS 578T breast
HT29 colon = system: HT29 colon
HCT-116 colon = system: HCT-116 colon
SK-MEL-2 melanoma = system: SK-MEL-2 melanoma
SW-620 colon = system: SW-620 colon
M14 melanoma = system: M14 melanoma
CAKI-1 renal = system: CAKI-1 renal
CCRF-CEM leukemia = system: CCRF-CEM leukemia
NCI-H522 lung = system: NCI-H522 lung
SF-268 CNS = system: SF-268 CNS
MCF7 breast = system: MCF7 breast
SNB-19 CNS = system: SNB-19 CNS
A549 NSCLC = system: A549 NSCLC
MALME-3M melanoma = system: MALME-3M melanoma
KM12 colon = system: KM12 colon
COLO 205 colon = system: COLO 205 colon
A498 renal = system: A498 renal
OVCAR-4 ovarian = system: OVCAR-4 ovarian
SK-MEL-28 melanoma = system: SK-MEL-28 melanoma
SF-539 CNS = system: SF-539 CNS
U251 CNS = system: U251 CNS
HOP-62 NSCLC = system: HOP-62 NSCLC
OVCAR-5 ovarian = system: OVCAR-5 ovarian
786-0 renal = system: 786-0 renal
OVCAR-3 ovarian = system: OVCAR-3 ovarian
HOP-92 NSCLC = system: HOP-92 NSCLC
UO-31 renal = system: UO-31 renal
RPMI-8226 leukemia = system: RPMI-8226 leukemia
HL-60(TB) leukemia = system: HL-60(TB) leukemia
MDA-MB-435 = system: MDA-MB-435
T-47D breast = system: T-47D breast
OVCAR-8 ovarian = system: OVCAR-8 ovarian
NCI/ADR-RES ovarian = system: NCI/ADR-RES ovarian
UACC-257 melanoma = system: UACC-257 melanoma
SNB-75 CNS = system: SNB-75 CNS
ACHN renal = system: ACHN renal

## N#Cc1c(-c2ccc(Cl)cc2)nc(SCc2ccccc2)nc1N1CCNCC1
MOLT-4 leukemia
  GI50: 1600 nM
  TGI: 3690 nM
UACC-62 melanoma
  GI50: 1770 nM
  TGI: 3210 nM
PC-3 prostate
  GI50: 1610 nM
  TGI: 3080 nM
SF-295 CNS
  GI50: 1750 nM
  TGI: 3160 nM
RXF 393 renal
  GI50: 1580 nM
  TGI: 3020 nM
SK-MEL-5 melanoma
  GI50: 1760 nM
  TGI: 3140 nM
SN12C renal
  GI50: 1770 nM
  TGI: 3270 nM
EKVX NSCLC
  GI50: 1520 nM
  TGI: 2890 nM
NCI-H226 lung
  GI50: 1840 nM
  TGI: 3530 nM
MDA-MB-231 breast
  GI50: 1730 nM
  TGI: 3370 nM
K-562 leukemia
  GI50: 1770 nM
  TGI: 5810 nM
BT-549 breast
  GI50: 1690 nM
  TGI: 3140 nM
NCI-H460 lung
  GI50: 1720 nM
  TGI: 3190 nM
SK-OV-3 ovarian
  GI50: 1870 nM
  TGI: 3570 nM
LOX IMVI melanoma
  GI50: 2050 nM
  TGI: 3550 nM
HCT-15 colon
  GI50: 1600 nM
  TGI: 3020 nM
TK-10 renal
  GI50: 1510 nM
  TGI: 2890 nM
DU-145 prostate
  GI50: 1700 nM
  TGI: 3070 nM
IGROV1 ovarian
  GI50: 1610 nM
  TGI: 3060 nM
HCC-2998 colon
  GI50: 1600 nM
  TGI: 3030 nM
HS 578T breast
  GI50: 1890 nM
  TGI: 4200 nM
HT29 colon
  GI50: 1650 nM
  TGI: 3020 nM
HCT-116 colon
  GI50: 1640 nM
  TGI: 3120 nM
SK-MEL-2 melanoma
  GI50: 1600 nM
  TGI: 3020 nM
SW-620 colon
  GI50: 1690 nM
  TGI: 3220 nM
M14 melanoma
  GI50: 1650 nM
  TGI: 3080 nM
CAKI-1 renal
  GI50: 1480 nM
  TGI: 2810 nM
CCRF-CEM leukemia
  GI50: 1970 nM
  TGI: 4510 nM
NCI-H522 lung
  GI50: 1500 nM
  TGI: 2900 nM
SF-268 CNS
  GI50: 1620 nM
  TGI: 3200 nM
MCF7 breast
  GI50: 1590 nM
  TGI: 3200 nM
SNB-19 CNS
  GI50: 1610 nM
  TGI: 3080 nM
A549 NSCLC
  GI50: 1550 nM
  TGI: 2990 nM
MALME-3M melanoma
  GI50: 1710 nM
  TGI: 3320 nM
KM12 colon
  GI50: 1770 nM
  TGI: 3290 nM
COLO 205 colon
  GI50: 1650 nM
  TGI: 3040 nM
A498 renal
  GI50: 1690 nM
  TGI: 3370 nM
OVCAR-4 ovarian
  GI50: 1640 nM
  TGI: 3080 nM
SK-MEL-28 melanoma
  GI50: 1780 nM
  TGI: 3190 nM
SF-539 CNS
  GI50: 1780 nM
  TGI: 3200 nM
U251 CNS
  GI50: 1580 nM
  TGI: 2940 nM
HOP-62 NSCLC
  GI50: 1750 nM
  TGI: 3400 nM
OVCAR-5 ovarian
  GI50: 1640 nM
  TGI: 3020 nM
786-0 renal
  GI50: 1420 nM
  TGI: 2960 nM
OVCAR-3 ovarian
  GI50: 1730 nM
  TGI: 3180 nM
HOP-92 NSCLC
  GI50: 1060 nM
  TGI: 2390 nM
UO-31 renal
  GI50: 1350 nM
  TGI: 2640 nM
RPMI-8226 leukemia
  GI50: 1900 nM
  TGI: 4490 nM
HL-60(TB) leukemia
  GI50: 1440 nM
  TGI: 3710 nM
MDA-MB-435
  GI50: 1700 nM
  TGI: 3100 nM
T-47D breast
  GI50: 1650 nM
  TGI: 3260 nM
OVCAR-8 ovarian
  GI50: 1630 nM
  TGI: 3030 nM
NCI/ADR-RES ovarian
  GI50: 1600 nM
  TGI: 3180 nM
UACC-257 melanoma
  GI50: 1550 nM
  TGI: 2960 nM
SNB-75 CNS
  GI50: 1330 nM
  TGI: 2680 nM
ACHN renal
  GI50: 1670 nM
  TGI: 3040 nM
